{
  "source": "paper PMC6349869",
  "about": "“The palladacycle complex AJ-5 induces apoptotic cell death while reducing autophagic flux in rhabdomyosarcoma cells” (Cell Death Discovery, 2019)",
  "key": {"[1]": {"tested_on": "SW1353, SW872, SW982, HT1080 and MG-63 cells", "experiment": "Clonogenic assay, sarcoma subtypes", "assay_type": "cell-based, human", "conditions": "¼ IC50, 24 h, all sarcoma subtypes", "description": "Cells were seeded in 6-well plates and treated the following day with IC50, ½ IC50, ¼ IC50 AJ-5 and vehicle. After 24 h, 800–4000 cells were seeded in 35 mm dishes in drug-free medium. Formation of colonies were monitored and after 7–21 days cells were fixed with 3:1 methanol:acetic acid and stained with 0.5% crystal violet (Sigma Aldrich) in 100% methanol. Colonies were imaged and percentage colony area was determined using ImageJ v1.50i[58] and the plugin ColonyArea[59]. Colony area was determined for each drug concentration and expressed as a percentage of vehicletreated control.\nFig. S2 AJ-5 is cytotoxic in a range of sarcoma subtypes. […] Graphs show mean cell viability as a percentage of vehicle control ± SEM for each concentration of AJ-5 determined from three independent experiments performed in quadruplicate. […] (B) Selectivity indices (SIs) were determined for each cell line by dividing the IC50 of each non-malignant cell line (Fig. 1C) including normal fibroblast cell lines (FG0 and DMB) and mesenchymal stem cell line (A10021501) by the IC50 of each sarcoma cell line. […] Colonies were stained with crystal violet and images from three independent repeats were quantified using the ImageJ plugin ColonyArea. […] Data was analysed using GraphPad Prism 6.0 and a parametric unpaired t-test was performed *p<0.05, **p<0.01, ***p<0.001."}, "RH30 and RD cells": {"tested_on": "RH30 and RD cells", "experiment": "Annexin V-FITC/PI assay", "assay_type": "cell-based, human", "conditions": "IC50", "description": "Cells were seeded, trypsinized, washed and counted as described for cell cycle analysis. The FITC Annexin V/Dead Cell Apoptosis kit (V13242; Thermo Fisher Scientific) was used according to the manufacturer's instructions. A negative control of unstained cells and positive controls of cells treated with 3% formaldehyde for 30 min on ice and stained with either PI or Annexin V were used to gate the flow cytometer for viable, early apoptotic, late apoptotic, and necrotic cell populations. Samples were subjected to FACS analyses as described for cell cycle analysis. Data were obtained and analysed using CellQuest Pro version 5.2.1. software."}, "[2]": {"tested_on": "SW1353, SW872, SW982, HT1080 and MG-63 cells", "experiment": "Selectivity index of sarcoma subtype cell lines (MTT)", "assay_type": "cell-based, human", "conditions": "relative to the combined IC50 values for normal fibroblasts (FG0 and DMB); SW1353, SW872, SW982, HT1080, MG-63", "description": "Cells were seeded in 96-well plates and treated the next day with a range of AJ-5 concentrations (0.1–1.0 μM) or vehicle ([…]) for 48 h. Cell viability was measured using the 3-(4,5-dimethylthiazol-2-yl)-2,5-diphenyl-trazolium bromide (MTT) assay (11465007001; Sigma Aldrich) according to the manufacturer’s instructions. Mean cell viability was calculated as a percentage of the mean vehicle control. At least three independent experiments in quadruplicate were performed from which the half maximal inhibitory concentration (IC50) was determined using GraphPad Prism version 6.0 (GraphPad Software, California, USA). The selectivity index (SI) was determined by dividing the IC50 of a normal cell line by the IC50 of a cancer cell line.\nFig. S2 AJ-5 is cytotoxic in a range of sarcoma subtypes. […] Graphs show mean cell viability as a percentage of vehicle control ± SEM for each concentration of AJ-5 determined from three independent experiments performed in quadruplicate. […] (B) Selectivity indices (SIs) were determined for each cell line by dividing the IC50 of each non-malignant cell line (Fig. 1C) including normal fibroblast cell lines (FG0 and DMB) and mesenchymal stem cell line (A10021501) by the IC50 of each sarcoma cell line. […] Colonies were stained with crystal violet and images from three independent repeats were quantified using the ImageJ plugin ColonyArea. […]"}, "[3]": {"experiment": "Pharmacokinetics in whole blood of healthy mice", "assay_type": "in vivo, MF1 mice", "conditions": "for Cmax: measured as Pd", "description": "Pharmacokinetic parameters of AJ-5 were determined after IV, IP and PO dosing to MF1 nude mice randomly divided into groups. AJ-5 was prepared in the respective formulations immediately prior to dosing. For the IV group, the compound was made up in a mixture of 10% DMSO and 90% of an IV mixture, which consisted of 60% propylene glycol, 10% ethanol and 30% polyethylene glycol. For the PO group, AJ-5 was dissolved in DMSO and a hydroxypropylmethylcellulose solution (0.5% in water) containing 0.2% Tween 80 in a ratio of 1:9. For the IP group, AJ-5 was dissolved in 10% DMSO and 90% phosphate buffer solution. Mice were permitted access to food and water ad libitum. AJ-5 was administered (100 μL) by oral gavage at a dose of 20 mg/kg (n = 3), intravenously into the penile dorsal vein at a dose of 2 mg/kg (n = 2) and intraperitoneally at a dose of 2 mg/kg (n = 3).\nBlood samples (20 μL per sample) were collected by tail tip bleeding in lithium heparin tubes at predetermined time points to evaluate the kinetic profile over 24 h. Samples were stored at −80 °C until analysis. Blood samples together with calibration standards and quality controls were quantified using inductively coupled plasma mass spectrometry. All results reported are for palladium (Pd). Pharmacokinetic parameters of the AJ-5 complex were determined using non-compartmental analysis in PK Solutions 2.0 (Summit Research Systems, Montrose CO, USA)."}, "SW872 cells": {"tested_on": "SW872 cells", "experiment": "MTT cell viability assay, SW872 liposarcoma", "assay_type": "cell-based, human", "conditions": "48 h"}},
  "data": [
    {"smiles": "CC(C)c1cccc(C(C)C)c1[N+]1=Cc2cccc[c]2[Pd-2]1([Cl])[P+](CC[P+](c1ccccc1)(c1ccccc1)[Pd-2]1([Cl])[c]2ccccc2C=[N+]1c1c(C(C)C)cccc1C(C)C)(c1ccccc1)c1ccccc1", "note": "(stereo not shown) [AJ-5]", "values": [
      {"measurement": "Ability of sarcoma cells to survive and proliferate (colony area)", "setting": "[1]", "value": "significantly reduced"},
      {"measurement": "Cell death (Annexin V-FITC/PI)", "setting": "RH30 and RD cells", "value": "induces apoptotic and necrotic cell death"},
      {"measurement": "Selectivity index (SI)", "setting": "[2]", "value": "> 2"},
      {"measurement": "AUC0-∞", "setting": "[3]; IP 2 mg/kg", "value": "88 ± 67", "unit": "µmol·min/L"},
      {"measurement": "BA", "setting": "[3]; IP 2 mg/kg", "value": "49 ± 38", "unit": "%"},
      {"measurement": "Tmax", "setting": "[3]; IP 2 mg/kg", "value": "4.0 ± 0.00", "unit": "h"},
      {"measurement": "area under the curve", "setting": "[3]; IP 2 mg/kg", "value": 88, "unit": "min.µM/L"},
      {"measurement": "Cmax", "setting": "[3]; IP 2 mg/kg", "value": "30 ± 10", "unit": "nM"},
      {"measurement": "AUC0-∞", "setting": "[3]; IV 2 mg/kg", "value": "179 ± 12", "unit": "µmol·min/L"},
      {"measurement": "CL", "setting": "[3]; IV 2 mg/kg", "value": 9.2, "unit": "mL/min/kg"},
      {"measurement": "Vd", "setting": "[3]; IV 2 mg/kg", "value": 8.8, "unit": "L/kg"},
      {"measurement": "t1/2", "setting": "[3]; IV 2 mg/kg, 2 mg/kg", "value": "11.2 ± 4.8", "unit": "h"},
      {"measurement": "AUC0-∞", "setting": "[3]; PO 20 mg/kg", "value": "11 ± 2", "unit": "µmol·min/L"},
      {"measurement": "BA", "setting": "[3]; PO 20 mg/kg", "value": "1 ± 0.1", "unit": "%"},
      {"measurement": "Tmax", "setting": "[3]; PO 20 mg/kg", "value": "0.8 ± 0.3", "unit": "h"},
      {"measurement": "area under the curve", "setting": "[3]; PO 20 mg/kg", "value": 11, "unit": "min.µM/L"},
      {"measurement": "Cmax", "setting": "[3]; PO 20 mg/kg", "value": "6 ± 7", "unit": "nM"},
      {"measurement": "Exposure after IP 2 mg/kg compared to PO 20 mg/kg", "setting": "[3]; ratio of AUC", "value": "eight-fold higher"},
      {"measurement": "IC50", "setting": "SW872 cells", "value": "< 300", "unit": "nM"}
    ]}
  ]
}
